The record followed here is ChEMBL document CHEMBL3046535, “Evaluation of some weed control treatments for long season weed control in maize (Zea mays L.) under zero and minimum tillage at Samaru, in Nigeria” (Crop Prot, 2008).

Type in all cases: organism-based
Series [1] concerns Zea mays. In words: Toxicity in Zea mays TZBSR (maize) assessed as crop injury at 1.5 kg a.i/ha applied post-emergence after ridgining at minimum tillage conditions using Knapsack sprayer. The conditions noted are these: in vivo, other.
Series [2] has as its system Zea mays. In words: Toxicity in Zea mays TZBSR (maize) assessed as crop vigour at 1.5 kg a.i/ha applied post-emergence after ridgining at minimum tillage conditions using Knapsack sprayer. The following applies: in vivo, other.
The test system of series [3] is Zea mays. In words: Toxicity in Zea mays TZBSR (maize) assessed as plant height at 1.5 kg a.i/ha applied post-emergence after ridgining at minimum tillage conditions using Knapsack sprayer measured 9 weeks post treatment. The following applies: in vivo, other, 1512 h.
Series [4] relates to Zea mays. Briefly: Toxicity in Zea mays TZBSR (maize) assessed as crop stand count at 1.5 kg a.i/ha applied post-emergence after ridgining at minimum tillage conditions using Knapsack sprayer measured 6 weeks post treatment. The conditions noted are these: in vivo, other, 1008 h.

The structures appear in SMILES notation.

As to `CCNc1nc(Cl)nc(NC(C)C)n1` [ATRAZINE], the Activity result is given as “Non-toxic” in the series with Zea mays [1], “Non-toxic” in the series with Zea mays [2] and 3.35 m in the series on Zea mays [3].

With `O=C(O)COc1ccc(Cl)cc1Cl` [2,4-DICHLOROPHENOXYACETIC ACID], the Activity result with Zea mays [1] is on record as “Non-toxic”; in the series with Zea mays [2], “Non-toxic”; in the series with Zea mays [4] it was “Non-toxic”; in the series with Zea mays [3] it was 3.33 m.
